Where two headings read alike, the source gives them in different places.
Biological target: T1, human ALK (Homo sapiens, UniProt Q9UM73)
T1 construct: GST (N); purchased Invitrogen, Carlsbad, Calif; (or prepared by AstraZeneca); host or cells: insect cells
Assay: ALK kinase mobility shift assay (Caliper LC3000)
Format: biochemical
Details: ATP 30 μM (Km) or 5 mM, not specified which
Method: ALK kinase activity was determined by measuring the kinase's ability to phosphorylate a tyrosine residue within a peptide substrate using a mobility shift assay on a Caliper LC3000 reader (Caliper Life Sciences, Hopkinton, Mass.), which measures fluorescence of the phosphorylated and unphosphorylated substrate and calculates a ratiometric value to determine percent turnover.
To measure ALK kinase activity, the ALK enzyme used was N-terminal GST-tagged, recombinant, human ALK, amino acids 1058-1620 (Genbank Accession number NP_004295) expressed in insect cells and activated in-vitro via autophosphorylation. This was either purchased from a commercially available source (Invitrogen, Carlsbad, Calif.) or prepared by AstraZeneca. The kinase was incubated with a FAM labeled SRCtide substrate (5FAM-GEEPLYWSFPAKKK-NH2, AnaSpec, Fremont, Calif.), 30 μM adenosine triphosphate (ATP, at Km concentration) or 5 mM ATP, 50 mM HEPES buffer (pH 7.3), 1 mM DTT, 0.01% Tween 20, 50 μg/ml BSA and 10 mM MgCl2 for 90 minutes at room temperature. After this time, the kinase reaction was stopped by adding quenching buffer containing final concentrations of 36 mM ethylenediaminetetraacetic acid (EDTA), 65 mM HEPES buffer (pH 7.3), 0.2% Coatin Reagent 3 (Caliper Life Sciences, Hopkinton, Mass.), and 0.003% Tween 20. The reaction was performed in 384 well microtitre plates and the reaction products were detected using the Caliper LC3000 Reader in the presence of separation buffer consisting of 100 mM HEPES (pH 7.3), 15.8 mM EDTA, 0.1% Coatin Reagent 3 (Caliper, Mass.), 0.015% Brij-35, 5% DMSO, and 5.6 mM MgCl2. The separation conditions set up on the Caliper LC3000 were −1.7 PSI, −400V upstream voltage, −2000V downstream voltage, 0.2 second sample sip, 45 second post sip, and 150 seconds final delay. The percentage of inhibition of ALK enzyme activity by compounds were measured based on Max signals (DMSO control) and Min signals (EDTA control) in the plates. Data was graphed and IC50s calculated by IDBS ActivityBase program.

[1] = cumulative geometric means including test re-runs, some obtained since the priority filings, read-out: ALK Enzyme IC50 (μM)**
[2] = geometric means of multiple test runs, as presented in the priority filings, read-out: ALK Enzyme IC50 (μM)*

T1 sequence (Q9UM73 1058-1620): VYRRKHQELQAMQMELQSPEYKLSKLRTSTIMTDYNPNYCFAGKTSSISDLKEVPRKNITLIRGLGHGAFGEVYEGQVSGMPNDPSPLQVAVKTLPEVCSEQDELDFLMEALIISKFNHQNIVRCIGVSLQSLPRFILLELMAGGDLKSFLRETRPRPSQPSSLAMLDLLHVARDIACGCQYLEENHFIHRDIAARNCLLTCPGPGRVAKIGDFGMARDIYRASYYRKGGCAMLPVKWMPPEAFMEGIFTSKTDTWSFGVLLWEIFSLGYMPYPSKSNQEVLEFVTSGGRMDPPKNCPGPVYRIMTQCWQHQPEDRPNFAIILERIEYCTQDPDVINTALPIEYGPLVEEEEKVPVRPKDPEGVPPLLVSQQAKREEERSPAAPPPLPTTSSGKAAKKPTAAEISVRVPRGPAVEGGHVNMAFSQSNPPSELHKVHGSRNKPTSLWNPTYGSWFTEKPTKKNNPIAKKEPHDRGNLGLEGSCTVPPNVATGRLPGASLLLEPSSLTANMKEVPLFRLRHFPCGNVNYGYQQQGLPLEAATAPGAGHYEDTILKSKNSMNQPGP

Row | SMILES | IC50 [1] | IC50 [2]
1 | COc1cc(P2(=O)CCC(N)CC2)ccc1Nc1ncc(Cl)c(-c2c[nH]c3ccccc23)n1 (single isomer, unassigned) [Example 42, N-[4-(4-amino-1-oxidophosphinan-1-yl)-2-methoxyphenyl]-5-chloro-4-(1H-indol-3-yl)pyrimidin-2-amine] | 0.083 µM | –
2 | COc1cc(P2(=O)CCC(N)CC2)ccc1Nc1ncc(C)c(-c2c[nH]c3ccccc23)n1 (single isomer, unassigned) [Example 43, N-[4-(4-amino-1-oxidophosphinan-1-yl)-2-methoxyphenyl]-4-(1H-indol-3-yl)-5-methylpyrimidin-2-amine] | 0.158 µM | –
3 | COc1cc(P2(=O)CCC(N)CC2)ccc1Nc1ncc(C)c(-c2c[nH]c3ccccc23)n1 (single isomer, unassigned) [Example 44, N-[4-(4-amino-1-oxidophosphinan-1-yl)-2-methoxyphenyl]-4-(1H-indol-3-yl)-5-methylpyrimidin-2-amine] | 0.02 µM | –
4 | COc1cc(N2CCC(N)C(F)C2)ccc1Nc1ncc(Cl)c(-c2c[nH]c3ccccc23)n1 (single isomer, unassigned) [Example 45, (trans)-N-(4-(4-amino-3-fluoropiperidin-1-yl)-2-methoxyphenyl)-5-chloro-4-(1H-indol-3-yl)pyrimidin-2-amine] | 0.061 µM | –
5 | COc1cc(N2CCC(N)C(F)C2)ccc1Nc1ncc(Cl)c(-c2c[nH]c3ccccc23)n1 (single isomer, unassigned) [Example 46, (trans)-N-(4-(4-amino-3-fluoropiperidin-1-yl)-2-methoxyphenyl)-5-chloro-4-(1H-indol-3-yl)pyrimidin-2-amine] | 0.039 µM | –
6 | COc1cc(N2CCC(N)C(F)C2)ccc1Nc1ncc(Cl)c(-c2c[nH]c3ccccc23)n1 (single isomer, unassigned) [Example 50, (cis)-N-(4-(4-amino-3-fluoropiperidin-1-yl)-2-methoxyphenyl)-5-chloro-4-(1H-indol-3-yl)pyrimidin-2-amine] | 0.022 µM | –
7 | COc1cc(N2CCC(N)C(F)C2)ccc1Nc1ncc(Cl)c(-c2c[nH]c3ccccc23)n1 (single isomer, unassigned) [Example 51, (cis)-N-(4-(4-amino-3-fluoropiperidin-1-yl)-2-methoxyphenyl)-5-chloro-4-(1H-indol-3-yl)pyrimidin-2-amine] | 0.031 µM | –
8 | CNC1CCN(c2ccc(Nc3ncc(Cl)c(-c4c[nH]c5ccccc45)n3)c(OC)c2)CC1 [Example 2, 5-Chloro-4-(1H-indol-3-yl)-N-(2-methoxy-4-(4-(methylamino)piperidin-1-yl)phenyl)pyrimidin-2-amine] | – | 0.023 µM
9 | COc1cc(N2CCC(N3CCNCC3)CC2)ccc1Nc1ncc(Cl)c(-c2c[nH]c3ccccc23)n1 [Example 3, 5-Chloro-4-(1H-indol-3-yl)-N-(2-methoxy-4-(4-(piperazin-1-yl)piperidin-1-yl)phenyl)pyrimidin-2-amine] | – | 0.07 µM
10 | CNC1CCN(c2ccc(Nc3ncc(C)c(-c4c[nH]c5ccccc45)n3)c(OC)c2)CC1 [Example 4, 4-(1H-Indol-3-yl)-N-(2-methoxy-4-(4-(methylamino)piperidin-1-yl)phenyl)-5-methylpyrimidin-2-amine] | – | 0.052 µM
11 | COc1cc(N2CCC(N)CC2)ccc1Nc1ncc(C)c(-c2c[nH]c3ccccc23)n1 [Example 5, N-(4-(4-Aminopiperidin-1-yl)-2-methoxyphenyl)-4-(1H-indol-3-yl)-5-methylpyrimidin-2-amine] | – | 0.03 µM
12 | COc1cc(N2CCC(NC3CC3)CC2)ccc1Nc1ncc(Cl)c(-c2c[nH]c3ccccc23)n1 [Example 6, 5-Chloro-N-(4-(4-(cyclopropylamino)piperidin-1-yl)-2-methoxyphenyl)-4-(1H-indol-3-yl)pyrimidin-2-amine] | – | 0.058 µM
13 | COc1cc(N2CCC(N3CCN(C)CC3)CC2)ccc1Nc1ncc(F)c(-c2c[nH]c3ccccc23)n1 [Example 7, 5-Fluoro-4-(1H-Indol-3-yl)-N-(2-methoxy-4-(4-(4-methylpiperazin-1-yl)piperidin-1-yl)phenyl)pyrimidin-2-amine] | 0.079 µM | 0.041 µM
14 | COc1cc(N2CCC(N3CCN(C)CC3)CC2)ccc1Nc1ncc(C(F)(F)F)c(-c2c[nH]c3ccccc23)n1 [Example 8, 4-(1H-Indol-3-yl)-N-(2-methoxy-4-(4-(4-methylpiperazin-1-yl)piperidin-1-yl)phenyl)-5-(trifluoromethyl)pyrimidin-2-amine] | – | 0.061 µM
15 | COc1cc(N2CCC(N(C)C)CC2)ccc1Nc1ncc(C)c(-c2c[nH]c3ccccc23)n1 [Example 11, N-(4-(4-(Dimethylamino)piperidin-1-yl)-2-methoxyphenyl)-4-(1H-indol-3-yl)-5-methylpyrimidin-2-amine] | – | 0.086 µM
16 | COc1cc(N2CCC(N(C)C)CC2)ccc1Nc1ncc(Cl)c(-c2c[nH]c3ccccc23)n1 [Example 12, 5-Chloro-N-(4-(4-(dimethylamino)piperidin-1-yl)-2-methoxyphenyl)-4-(1H-indol-3-yl)pyrimidin-2-amine] | 0.021 µM | 0.023 µM
17 | COc1cc(N2CCC(N(C)C)CC2)ccc1Nc1ncc(F)c(-c2c[nH]c3ccccc23)n1 [Example 13, N-(4-(4-(Dimethylamino)piperidin-1-yl)-2-methoxyphenyl)-5-fluoro-4-(1H-indol-3-yl)pyrimidin-2-amine] | – | 0.05 µM
18 | COc1cc(N2CCC(N3CCN(C)CC3)CC2)c(C)cc1Nc1ncc(Cl)c(-c2c[nH]c3ccccc23)n1 [Example 14, 5-Chloro-4-(1H-indol-3-yl)-N-(2-methoxy-5-methyl-4-(4-(4-methylpiperazin-1-yl)piperidin-1-yl)phenyl)pyrimidin-2-amine] | – | 0.024 µM
19 | COc1cc(N2CCC(N3CCN(C)CC3)CC2)c(C)cc1Nc1ncc(C)c(-c2c[nH]c3ccccc23)n1 [Example 15, 4-(1H-Indol-3-yl)-N-(2-methoxy-5-methyl-4-(4-(4-methylpiperazin-1-yl)piperidin-1-yl)phenyl)-5-methylpyrimidin-2-amine] | – | 0.144 µM
20 | COc1cc(N2CCC(N(C)C)CC2)c(C)cc1Nc1ncc(Cl)c(-c2c[nH]c3ccccc23)n1 [Example 16, 5-Chloro-N-(4-(4-(dimethylamino)piperidin-1-yl)-2-methoxy-5-methylphenyl)-4-(1H-indol-3-yl)pyrimidin-2-amine] | – | 0.019 µM
21 | COc1cc(N2CCC(N(C)C)CC2)c(C)cc1Nc1ncc(C)c(-c2c[nH]c3ccccc23)n1 [Example 17, N-(4-(4-(Dimethylamino)piperidin-1-yl)-2-methoxy-5-methylphenyl)-4-(1H-indol-3-yl)-5-methylpyrimidin-2-amine] | – | 0.047 µM
22 | COc1cc(N2CCC(N)CC2)c(C)cc1Nc1ncc(Cl)c(-c2c[nH]c3ccccc23)n1 [Example 18, N-(4-(4-Aminopiperidin-1-yl)-2-methoxy-5-methylphenyl)-5-chloro-4-(1H-indol-3-yl)pyrimidin-2-amine] | – | 0.027 µM
23 | COc1cc(N2CCC(N)CC2)c(C)cc1Nc1ncc(C)c(-c2c[nH]c3ccccc23)n1 [Example 19, N-(4-(4-aminopiperidin-1-yl)-2-methoxy-5-methylphenyl)-4-(1H-indol-3-yl)-5-methylpyrimidin-2-amine] | – | 0.052 µM
24 | COc1cc(N2CCC(NCCO)CC2)ccc1Nc1ncc(Cl)c(-c2c[nH]c3ccccc23)n1 [Example 20, 2-(1-(4-(5-Chloro-4-(1H-indol-3-yl)pyrimidin-2-ylamino)-3-methoxyphenyl)piperidin-4-ylamino)ethanol] | – | 0.029 µM
25 | COc1cc(N2CCC(N3CCN(S(C)(=O)=O)CC3)CC2)ccc1Nc1ncc(Cl)c(-c2c[nH]c3ccccc23)n1 [Example 21, 5-Chloro-4-(1H-indol-3-yl)-N-(2-methoxy-4-{4-[4-(methylsulfonyl)piperazin-1-yl]piperidin-1-yl}phenyl)pyrimidin-2-amine] | – | 0.235 µM
26 | COc1cc(N2CCC(N3CC[C@@H](F)C3)CC2)ccc1Nc1ncc(Cl)c(-c2c[nH]c3ccccc23)n1 [Example 22, 5-Chloro-N-(4-{4-[(3R)-3-fluoropyrrolidin-1-yl]piperidin-1-yl}-2-methoxyphenyl)-4-(1H-indol-3-yl)pyrimidin-2-amine] | – | 0.057 µM
27 | COc1cc(N2CCC(N3CCN(C(C)C)CC3)CC2)ccc1Nc1ncc(Cl)c(-c2c[nH]c3ccccc23)n1 [Example 23, 5-Chloro-4-(1H-indol-3-yl)-N-(4-(4-(4-isopropylpiperazin-1-yl)piperidin-1-yl)-2-methoxyphenyl)pyrimidin-2-amine] | – | 0.028 µM
